Reference: ChEMBL document CHEMBL1129422, “Syntheses and structure-activity relationships of the second-generation antitumor taxoids: exceptional activity against drug-resistant cancer cells” (J Med Chem, 1996)

Experiments:
A549 = assay: Concentration required to inhibit growth of human tumor A549 (NSCL) cell line.; assay type: functional, cell-based
Mus musculus [1] = assay: Log cell kill = T-C(days)/3.32xTd (Tumor doubling time in days, 1.4 in this assay )on day 7 at 7.7 mg/kg/day in B16 melanoma implanted sc in B6D2F1 mice; assay type: ADME, organism-based; parameters: route subcutaneous; settings: in vivo
MCF7 [2] = assay: Concentration required to inhibit growth of human tumor […] (breast) cell line.; assay type: functional, cell-based
MCF7 [3] = assay: Concentration required to inhibit growth of human tumor MCF-7 (breast) cell line.; assay type: functional, cell-based
Mus musculus [4] = assay: Tumor growth inhibition of B16 melanoma implanted sc in B6D2F1 mice when 0.4 mL/mouse administered i.v. on day 7 at 7.7 mg/kg/day; assay type: functional; settings: route intravenous
A121 = assay: Concentration required to inhibit growth of human tumor A121 (ovarian) cell line.; assay type: functional, cell-based
Mus musculus [5] = assay: Tumor growth inhibition of B16 melanoma implanted sc in B6D2F1 mice when 0.4 mL/mouse administered i.v. on day 9 at 4.8 mg/kg/day; assay type: functional; settings: route intravenous
Mus musculus [6] = assay: Tumor growth delay of B16 melanoma implanted sc in B6D2F1 mice when 0.4 mL/mouse administered i.v. on day 9 at 4.8 mg/kg/day; assay type: functional; settings: route intravenous
HT-29 = assay: Concentration required to inhibit growth of human tumor HT-29 (colon) cell line.; assay type: functional, cell-based
Mus musculus [7] = assay: Tumor growth delay of B16 melanoma implanted sc in B6D2F1 mice when 0.4 mL/mouse administered i.v. on day 5 at 12.4 mg/kg/day; assay type: functional; settings: route intravenous
Mus musculus [8] = assay: Tumor growth inhibition of B16 melanoma implanted sc in B6D2F1 mice when 0.4 mL/mouse administered i.v. on day 5 at 12.4 mg/kg/day; assay type: functional; settings: route intravenous
Mus musculus [9] = assay: Log cell kill = T-C(days)/3.32xTd (Tumor doubling time in days, 1.4 in this assay )on day 9 at 4.8 mg/kg/day in B16 melanoma implanted sc in B6D2F1 mice; assay type: ADME, organism-based; parameters: route subcutaneous; settings: in vivo
Mus musculus [10] = assay: Log cell kill = T-C(days)/3.32xTd (Tumor doubling time in days, 1.4 in this assay ) on day 5 at 12.4 mg/kg/day in B16 melanoma implanted sc in B6D2F1 mice; assay type: ADME, organism-based; parameters: route subcutaneous; settings: in vivo
Mus musculus [11] = assay: Tumor growth delay of B16 melanoma implanted sc in B6D2F1 mice when 0.4 mL/mouse administered i.v. on day 7 at 7.7 mg/kg/day; assay type: functional; settings: route intravenous
A2780 [12] = assay: Cytotoxicity against A2780-C25, oxaliplatin-resistant Ovarian carcinoma cell line; assay type: functional, cell-based, Homo sapiens
A2780 [13] = assay: Cytotoxicity against A2780-WT, human ovarian carcinoma cell line; assay type: functional, cell-based
A2780 [14] = assay: Cytotoxicity against A2780-DX5, Doxorubicin-resistant Ovarian carcinoma cell line; assay type: functional, cell-based, Homo sapiens
A2780 [15] = assay: Cytotoxicity against A2780-CP3, cisplatin-resistant Ovarian carcinoma cell line; assay type: functional, cell-based, Homo sapiens
Mus musculus [16] = assay: Tumor growth delay of B16 melanoma implanted sc in B6D2F1 mice when 0.4 mL/mouse administered i.v. on day 9 at 7.7 mg/kg/day; assay type: functional; settings: route intravenous
Mus musculus [17] = assay: Tumor growth inhibition of B16 melanoma implanted sc in B6D2F1 mice when 0.4 mL/mouse administered i.v. on day 9 at 7.7 mg/kg/day; assay type: functional; settings: route intravenous
Mus musculus [18] = assay: Log cell kill = T-C(days)/3.32xTd (Tumor doubling time in days, 1.4 in this assay ) on day 5 at 20 mg/kg/day in B16 melanoma implanted sc in B6D2F1 mice; assay type: ADME, organism-based; parameters: route subcutaneous; settings: in vivo
Mus musculus [19] = assay: Log cell kill = T-C(days)/3.32xTd (Tumor doubling time in days, 1.4 in this assay )on day 7 at 12.4 mg/kg/day in B16 melanoma implanted sc in B6D2F1 mice; assay type: ADME, organism-based; parameters: route subcutaneous; settings: in vivo
Mus musculus [20] = assay: Tumor growth delay of B16 melanoma implanted sc in B6D2F1 mice when 0.4 mL/mouse administered i.v. on day 7 at 12.4 mg/kg/day; assay type: functional; settings: route intravenous
Mus musculus [21] = assay: Tumor growth inhibition of B16 melanoma implanted sc in B6D2F1 mice when 0.4 mL/mouse administered i.v. on day 7 at 12.4 mg/kg/day; assay type: functional; settings: route intravenous
Mus musculus [22] = assay: Tumor growth inhibition of B16 melanoma implanted sc in B6D2F1 mice when 0.4 mL/mouse administered i.v. on day 5 at 20 mg/kg/day; assay type: functional; settings: route intravenous
Mus musculus [23] = assay: Log cell kill = T-C(days)/3.32xTd (Tumor doubling time in days, 1.4 in this assay )on day 9 at 7.7 mg/kg/day in B16 melanoma implanted sc in B6D2F1 mice; assay type: ADME, organism-based; parameters: route subcutaneous; settings: in vivo

IC50 (A549) | IC50 (MCF7 [2]) | IC50 (MCF7 [3]) | IC50 (HT-29) | Molecule | IC50 (A121) | IC50 (A2780 [12]; Homo sapiens, A2780) | IC50 (A2780 [13]; Homo sapiens, A2780) | IC50 (A2780 [14]; Homo sapiens, A2780) | IC50 (A2780 [15]; Homo sapiens, A2780) | other results
0.29 nM | 2.2 nM | 0.18 nM | 0.31 nM | CCC(=O)O[C@H]1C(=O)[C@@]2(C)[C@H]([C@H](OC(=O)c3ccccc3)[C@]3(O)C[C@H](OC(=O)[C@H](O)[C@H](C=C(C)C)NC(=O)OC(C)(C)C)C(C)=C1C3(C)C)[C@]1(OC(C)=O)CO[C@@H]1C[C@@H]2O | 0.12 nM |  |  |  |  | Log 10 cell kill (Mus musculus [1]): 2; T/C (Mus musculus [4]): 0%; T/C (Mus musculus [5]): 34%; T-C (Mus musculus [6]): 3 days; T-C (Mus musculus [7]): 10.9 days; T/C (Mus musculus [8]): 0%; Log 10 cell kill (Mus musculus [9]): 0.6; Log 10 cell kill (Mus musculus [10]): 2.3; T-C (Mus musculus [11]): 9.3 days
0.27 nM | 12 nM | 0.55 nM | 0.63 nM | CC(=O)O[C@H]1C(=O)[C@@]2(C)[C@H]([C@H](OC(=O)c3ccccc3)[C@]3(O)C[C@H](OC(=O)[C@H](O)[C@H](C=C(C)C)NC(=O)OC(C)(C)C)C(C)=C1C3(C)C)[C@]1(OC(C)=O)CO[C@@H]1C[C@@H]2O | 0.46 nM | 0.3 nM | 0.4 nM | 5.7 nM | 0.36 nM | 
 |  |  |  | CC(=O)O[C@@]12CO[C@@H]1C[C@H](O)[C@@]1(C)C(=O)[C@H](O)C3=C(C)[C@@H](OC(=O)[C@H](O)[C@@H](NC(=O)OC(C)(C)C)c4ccccc4)C[C@@](O)([C@@H](OC(=O)c4ccccc4)[C@H]21)C3(C)C.O.O.O [DOCETAXEL] |  | 1 nM | 1.2 nM | 122 nM | 1.4 nM | T-C (Mus musculus [16]): 4.3 days; T/C (Mus musculus [17]): 8%; Log 10 cell kill (Mus musculus [18]): 3.3; Log 10 cell kill (Mus musculus [19]): 1.5; T-C (Mus musculus [20]): 7.1 days; T/C (Mus musculus [21]): 7%; T/C (Mus musculus [22]): 0%; Log 10 cell kill (Mus musculus [23]): 0.9
 |  |  |  | COc1cccc2c1C(=O)c1c(O)c3c(c(O)c1C2=O)C[C@@](O)(C(=O)CO)C[C@@H]3O[C@H]1C[C@H](N)[C@H](O)[C@H](C)O1 [DOXORUBICIN] |  | 63 nM | 5 nM | 357 nM | 56 nM | 
 |  |  |  | CISPLATIN |  |  |  |  |  | IC50 (A2780 [12]; a2780): 1600 nM; IC50 (A2780 [13]; a2780): 450 nM; IC50 (A2780 [14]; a2780): 280 nM; IC50 (A2780 [15]; a2780): 9000 nM
